# Tests used:
# Assay in all cases: relative viability (nuclei count vs DMSO), 5 days (fraction); higher = more cells survive
# [1] = compound: C=C(c1ccc(C(=O)O)cc1)c1cc2c(cc1C)C(C)(C)CCC2(C)C [Bexarotene] + CC(C)C[C@H](NC(=O)[C@H](Cc1ccccc1)NC(=O)c1cnccn1)B(O)O [Bortezomib] (partner 0.002 µM)
# Method in brief: (§1)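 The day after seeding in 1536-well plates, lung cancer cell lines were treated by pin tool with a single drug, or with a fixed anchor-drug dose together with five library-drug doses (not always all listed) in √10 steps. After 5 days, a combined fix-and-stain solution (final 0.05% Triton X-100, 1% formaldehyde, 1 ug/ml Hoechst) was added. Nuclei counted on 4× images gave relative viability as treated counts over vehicle counts, reported as the median of duplicate plates.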
# [2] = compound: C=C(c1ccc(C(=O)O)cc1)c1cc2c(cc1C)C(C)(C)CCC2(C)C [Bexarotene] + Cc1nc(Nc2ncc(C(=O)Nc3c(C)cccc3Cl)s2)cc(N2CCN(CCO)CC2)n1 [Dasatinib] (partner 0.075 µM)
# Method in brief: as §1
# [3] = compound: C=C(c1ccc(C(=O)O)cc1)c1cc2c(cc1C)C(C)(C)CCC2(C)C [Bexarotene] + CC1(C)CCC(c2ccc(Cl)cc2)=C(CN2CCN(c3ccc(C(=O)NS(=O)(=O)c4ccc(N[C@H](CCN5CCOCC5)CSc5ccccc5)c(S(=O)(=O)C(F)(F)F)c4)cc3)CC2)C1 [Navitoclax] (partner 0.5 µM)
# Method in brief: as §1
# [4] = compound: C=C(c1ccc(C(=O)O)cc1)c1cc2c(cc1C)C(C)(C)CCC2(C)C [Bexarotene] + CCNC(=O)c1noc(-c2cc(C(C)C)c(O)cc2O)c1-c1ccc(CN2CCOCC2)cc1 [Luminespib] (partner 0.01 µM)
# Method in brief: as §1
Cell Line,relative viability ([1]; first compound 0.08 µM),relative viability ([1]; first compound 0.253 µM),relative viability ([1]; first compound 0.8 µM),relative viability ([1]; first compound 2.53 µM),relative viability ([1]; first compound 8 µM),relative viability ([2]; first compound 0.08 µM),relative viability ([2]; first compound 0.253 µM),relative viability ([2]; first compound 0.8 µM),relative viability ([2]; first compound 2.53 µM),relative viability ([2]; first compound 8 µM),relative viability ([3]; first compound 0.08 µM),relative viability ([3]; first compound 0.253 µM),relative viability ([3]; first compound 0.8 µM),relative viability ([3]; first compound 2.53 µM),relative viability ([3]; first compound 8 µM),relative viability ([4]; first compound 0.08 µM),relative viability ([4]; first compound 0.253 µM),relative viability ([4]; first compound 0.8 µM),relative viability ([4]; first compound 2.53 µM),relative viability ([4]; first compound 8 µM)
201T,1.08,1.1,1.07,1.08,1.05,0.584,0.569,0.54,0.602,0.565,1.22,1.21,1.23,1.2,1.12,1,1.04,1.01,0.985,0.881
A-427,0.933,0.923,0.79,0.897,0.932,0.726,0.614,0.611,0.627,0.684,0.959,0.877,0.882,0.933,0.816,1.05,0.94,0.999,1.1,0.948
ABC-1,0.3,0.311,0.269,0.291,0.336,0.521,0.715,0.635,0.445,0.659,,,,,,0.591,0.654,0.597,0.576,0.677
BEN,0.905,0.599,0.672,0.496,0.649,0.295,0.3,0.326,0.271,0.278,0.083,0.0587,0.063,0.0608,0.0559,0.336,0.247,0.409,0.078,0.252
CAL-12T,1.02,,0.849,,0.816,0.296,0.327,0.332,0.302,0.271,1.14,1.26,1.39,1.13,1.02,0.218,0.224,0.419,0.322,0.297
COR-L23,1.06,0.989,0.898,0.933,0.892,0.498,0.557,0.503,0.606,0.203,0.98,1.12,0.847,0.916,0.879,0.795,0.786,0.565,0.629,0.618
COR-L 105,0.98,0.98,0.988,0.965,0.909,0.456,0.363,0.354,0.333,0.495,0.715,0.856,0.882,0.983,0.617,0.851,0.764,0.812,0.698,0.866
Calu-6,1,0.915,0.904,0.922,1.27,,,,,,0.804,0.801,0.694,0.784,0.827,,,,,
ChaGo-K-1,1.04,1.03,1.05,,1.06,0.568,0.604,0.638,0.661,0.593,0.98,0.987,1.07,,0.991,0.54,0.604,0.6,0.686,0.693
EBC-1,0.63,0.541,0.415,0.555,0.442,,,,,,0.43,0.401,0.333,0.344,0.369,,,,,
EKVX,0.999,1.28,1.07,1.1,1.09,0.515,0.512,0.567,0.523,0.463,0.906,0.94,0.908,0.878,0.966,0.918,0.837,0.922,0.787,0.851
EMC-BAC-2,1.24,1.03,0.97,1.05,1.03,0.328,0.316,0.294,0.309,0.334,1.26,1.27,1.09,1.31,1.15,1.28,1.23,1.23,1.12,1.11
EPLC-272H,0.968,0.875,0.538,0.776,0.822,0.388,0.312,0.369,0.352,0.383,1.16,1.09,1.01,0.974,0.96,0.304,0.332,0.252,0.303,0.258
H3255,0.733,0.919,0.784,0.65,0.856,0.406,0.311,0.385,0.338,0.334,0.528,0.473,0.534,0.5,0.543,0.869,0.935,1.01,0.785,0.954
HARA,1.16,1.04,1.02,1.02,1.03,0.324,0.268,0.332,0.407,0.567,1.23,1.27,1.17,1.07,0.854,0.722,0.769,0.658,0.767,0.709
HCC-15,1.06,1.13,1.05,0.959,1.01,0.695,0.741,0.648,0.647,0.683,0.726,0.793,0.703,0.617,0.602,0.192,0.314,0.321,0.353,0.231
HCC-44,0.997,1,0.851,0.823,0.822,,,,,,0.987,1.06,0.969,1.05,0.871,1.31,1.03,1.08,1.02,0.977
HCC-78,0.442,0.453,0.491,0.524,0.5,0.402,0.264,0.278,0.33,0.363,0.673,0.714,0.667,0.644,0.863,,,,,
HCC-366,1.07,0.979,1.02,1.08,1.06,0.737,0.67,0.613,0.649,0.621,1.04,1.15,1.14,0.975,1.03,,,,,
HCC-827,0.994,1.11,0.992,0.989,1,0.284,0.465,0.419,0.35,0.344,1.06,1.05,0.97,0.975,0.868,0.525,0.78,0.655,0.808,0.473

Cell Line,relative viability ([1]; first compound 0.08 µM),relative viability ([1]; first compound 0.253 µM),relative viability ([1]; first compound 0.8 µM),relative viability ([1]; first compound 2.53 µM),relative viability ([1]; first compound 8 µM),relative viability ([2]; first compound 0.08 µM),relative viability ([2]; first compound 0.253 µM),relative viability ([2]; first compound 0.8 µM),relative viability ([2]; first compound 2.53 µM),relative viability ([2]; first compound 8 µM),relative viability ([3]; first compound 0.08 µM),relative viability ([3]; first compound 0.253 µM),relative viability ([3]; first compound 0.8 µM),relative viability ([3]; first compound 2.53 µM),relative viability ([3]; first compound 8 µM),relative viability ([4]; first compound 0.08 µM),relative viability ([4]; first compound 0.253 µM),relative viability ([4]; first compound 0.8 µM),relative viability ([4]; first compound 2.53 µM),relative viability ([4]; first compound 8 µM)
HOP-62,0.611,1.05,0.916,0.645,0.81,0.677,0.641,0.428,0.606,0.57,1.02,1.07,1.26,1.01,1.17,1.07,1.1,1.01,1.09,0.978
IA-LM,0.683,0.697,0.596,0.662,0.518,,,,,,0.6,0.785,0.724,0.603,0.664,,,,,
LC-2-ad,0.936,1.16,1.09,0.936,0.985,0.696,0.602,0.575,0.497,0.625,0.576,0.485,0.432,0.368,0.284,1.01,0.978,1.04,1,1.1
LCLC-97TM1,0.58,0.625,0.468,0.126,0.575,1.05,0.795,0.815,0.773,0.822,0.459,0.4,0.413,0.427,0.381,0.827,0.849,0.778,0.769,0.822
LCLC-103H,1.07,1.03,0.863,1.11,1.23,0.489,0.567,0.419,0.525,0.49,,,,,,1.08,0.935,0.885,1.04,0.846
LK-2,,,,,,0.314,0.474,0.39,,0.465,1.1,0.782,0.935,0.944,0.802,0.206,0.222,0.281,,0.18
LOU-NH91,0.544,0.458,0.488,0.458,0.439,0.584,0.613,0.467,0.521,0.502,0.608,0.637,0.502,0.597,0.512,0.364,0.318,0.346,0.287,0.268
NCI-H358,,,,,,0.224,0.33,0.251,0.234,0.259,,,,,,0.136,0.306,0.325,0.244,0.121
NCI-H650,0.898,1.08,0.847,0.624,0.726,0.475,0.562,0.441,0.408,0.412,,,,,,0.779,0.828,0.877,0.898,0.742
NCI-H661,0.807,0.807,0.803,0.81,0.761,1.14,0.89,0.837,0.838,0.801,,,,,,0.943,0.9,0.929,0.89,0.89
NCI-H1299,1.07,1.1,1.04,1.02,1.06,,,,,,1.05,1.07,1.06,1.09,1.04,,,,,
NCI-H1395,,,,,,0.448,0.385,0.367,0.407,0.419,1.19,1.11,1.05,1.07,1.1,0.806,0.631,0.687,0.663,0.749
NCI-H1563,0.9,0.814,0.741,0.83,0.98,0.489,0.423,0.449,0.469,0.487,,,,,,0.518,0.493,0.48,0.524,0.503
NCI-H1703,0.254,0.253,0.258,0.227,0.27,,,,,,1.08,1.14,0.915,0.913,0.692,,,,,
NCI-H1793,,,,,,0.367,0.366,0.409,0.406,0.399,0.351,0.556,0.332,0.35,0.464,0.2,0.152,0.164,0.15,0.335
NCI-H1944,,,,,,0.24,0.216,0.222,0.221,0.293,1.03,0.97,0.945,0.972,0.986,1.45,0.977,0.959,1.11,0.875
NCI-H2170,,,,,,0.615,0.466,0.522,0.476,0.584,0.578,0.606,0.615,0.55,0.559,0.835,0.697,0.721,0.464,0.695
SK-MES-1,,,,,,0.283,0.459,0.348,0.401,0.313,1.47,1.2,1.25,1.33,1.09,0.923,0.989,0.803,0.742,0.64
SW 900,,,,,,0.703,0.55,0.505,0.544,0.772,,,,,,0.167,0.17,0.148,0.189,0.163
